Results as given in patent publication US20140100248A1, “Novel Heterocyclic Compounds as Modulators of Sphingolipid Signaling and Uses Thereof” (UNIVERSITÄT BERN, priority 2011, published 2014).

Tests used:
[1] = test system: colon cancer cell line HCT-116; experiment: colony formation assay; format: cell-based, human; conditions: HCT-116, 10 days of treatment
Description: Cells were seeded at a density of 700 cells per 60 mm-diameter dish in growth medium. After 24 h, cells were treated with either vehicle (Co) or the indicated concentrations (in μM) of FTY720, myriocin (myrio), ST-968, and ST-1071, and further cultured for 10 days at 37° C. Thereafter, colonies were stained and quantified as described in the Methods Section. […] Rat renal mesangial cells were isolated, characterized, and cultured as previously described (Pfeilschifter et al., 1984). For the experiments performed in this study, cells between passages 8-30 were used. The human endothelial cell line EA.hy 926 was cultured in RPMI medium containing 10% (v/v) fetal bovine serum, 10 mM Hepes, pH 7.4, 100 units/ml penicillin, and 100 μg/ml streptomycin. HCT-116 colon carcinoma cells were cultured in McCoy medium including 10% (v/v) fetal bovine serum, 100 units/ml penicillin, and 100 μg/ml streptomycin. Prior to stimulation, all cells were rendered quiescent for 24 h in DMEM including 0.1 mg/ml of fatty acid-free bovine serum albumin (BSA). Cells were subcultured in 60 mm-diameter dishes at a density of 700 cells per dish. After 24 h, cells were treated with the indicated concentrations of the different compounds in growth medium and incubated for further 10 days to allow colony formation. Cells were then washed with PBS, air dried, and stained for 30 min with 2% (w/v) crystal violet, washed with water and air dried again. The number of colonies was quantified using a ColCount™ (Mammalian Cell Colony Counter, Oxford Optronix, Oxford, U.K.). Only colonies containing more than 50 cells were evaluated.

[2] = test system: breast cancer cell lines (MCF-7, MDA-MB-231 and Sk-Br-3) and colon cancer cell lines (HCT-116 and SW620); conditions: cited from earlier work; for growth inhibition: Nagaoka et al. 2008, in the concentration tested
MCF-7 cells = conditions: Nagaoka et al. 2008; cited from earlier work
[3] = test system: p42/44-MAPK phosphorylation in EA.hy 926 cells; experiment: MAPK/ERK phosphorylation in the endothelial cell line EA.hy 926, Western blot; format: cell-based, human; conditions: 1 μM
Description: Confluent EA.hy 926 cells were treated either for 10 min (left side) or for 4 h (right side) with either vehicle (Co), S1P (1 μM), or ST-968 (1 μM). Thereafter, cell lysates containing 30 μg of protein were separated by SDS-PAGE, transferred to nitrocellulose and subjected to Western blot analysis using antibodies against phospho-ERK½ (dilution of 1:1000; A, upper panel), and total p42/ERK2 and p44/ERK1(dilutions each 1:6000; B, lower panel). Blots were stained by the ECL method according to the manufacturer's recommendation. Bands corresponding to the phospho-ERKs were densitometrically evaluated and results are depicted as % of control and are means ±S.D. ([…]).
(§1) Rat renal mesangial cells were isolated, characterized, and cultured as previously described (Pfeilschifter et al., 1984). For the experiments performed in this study, cells between passages 8-30 were used. The human endothelial cell line EA.hy 926 was cultured in RPMI medium containing 10% (v/v) fetal bovine serum, 10 mM Hepes, pH 7.4, 100 units/ml penicillin, and 100 μg/ml streptomycin. HCT-116 colon carcinoma cells were cultured in McCoy medium including 10% (v/v) fetal bovine serum, 100 units/ml penicillin, and 100 μg/ml streptomycin. Prior to stimulation, all cells were rendered quiescent for 24 h in DMEM including 0.1 mg/ml of fatty acid-free bovine serum albumin (BSA).
(§2) Confluent mesangial cells were stimulated as indicated in the figure legends in Dulbecco's modified Eagle medium (DMEM) supplemented with 0.1 mg/ml of fatty acid-free bovine serum albumin and 10 mM HEPES. After stimulation, the supernatant was taken for PGE2 or NO quantification and for detection of secreted IIA-sPLA2. The cell monolayers were homogenized in lysis buffer and processed exactly as previously described (Huwiler et al., 2006). Cell lysates were taken for protein determination. […] Bands were detected by enhanced chemiluminescence method as recommended by the manufacturer.

EA.hy 926 cells = experiment: serum-stimulated migration of endothelial cells, adapted Boyden chamber assay; format: cell-based, human; conditions: 10% serum, 6 h, at 3 μM and 10 μM
Description: Serum-starved EA. by 926 cells in 8 μM-polycarbonate inserts were treated for 6 h with 10% serum in the absence or presence of the indicated concentrations of ST-968 or ST-1071. Migrated cells were stained with DAPI and counted in a fluorescence microscop.
EA.hy 926 cells were cultured for 24 h under serum-free conditions. Chemotaxis was measured in Cell Culture Inserts (polycarbonate-coated membranes, […] pore size). The lower compartment was filled with serum-free DMEM and 1.7×10^5 cells were seeded per insert in the absence or presence of the indicated stimuli and inhibitors. After the indicated time periods, non-migrated cells were mechanically removed from the membrane and cells that had migrated into the membrane were fixed in 4% paraformaldehyde in PBS and stained with lug/ml of 4′,6-diamidino-2-phenylindole (DAPI). DAPI-stained cells were counted using a fluorescence microscope. Each data point is the average number of cells in five random fields and is the mean of four individual wells.

[4] = test system: secretory phospholipase A2 (sPLA2) expression; experiment: cytokine-triggered secretory phospholipase A2 expression in renal mesangial cells, Western blot; format: cell-based, rat; conditions: IL-1β 1 nM plus forskolin 10 μM, 24 h, increasing doses of ST-968
Description: Cells were treated for 24 h with either vehicle (−, 0) or with interleukin 1 β (1 nM) plus forskolin (10 μM) (IL-1/Fk, +) in the absence (0) or presence of the indicated concentrations of ST-968. Thereafter, supernatants were collected and equal volumes were taken for protein precipitation using trichloroacetic acid. Equal aliquots were separated by SDS-PAGE, transferred to nitrocellulose and subjected to Western blot analysis using a monoclonal antibody against rat sPLA2 at a dilution of 1:60. Blots were stained by the ECL method according to the manufacturer's recommendation. Data are representative of two independent experiments giving similar results.
as §2, with “manufacturer. […]” for “manufacturer.”

[5] = test system: nitric oxide (NO) formation; experiment: cytokine-triggered nitric oxide release from renal mesangial cells, Griess reagent; format: cell-based, rat; conditions: IL-1β 1 nM plus forskolin 10 μM, 24 h
Description: Cells were treated for 24 h with either vehicle (−) or with interleukin 1 β (1 nM) plus forskolin (10 μM) (IL-1/Fk, +) in the absence or presence of the indicated concentrations of ST-968 (in μM), or betamethasone (in nM). Thereafter, supernatants were collected and nitrite was quantified by using the Griess reagent.
Quiescent mesangial cells in 24-well plates were stimulated as indicated, and the supernatants were taken for nitrite determination using Griess reagent as described (Green et al., 1982).

[6] = test system: p42/44-MAPK phosphorylation in renal mesangial cells; experiment: MAPK/ERK (p42/44) phosphorylation in renal mesangial cells, Western blot; format: cell-based, rat; conditions: for agonistic potential on S1P receptors: concluded from MAPK/ERK activation and antagonist experiments; for p42/44 phosphorylation (p42/44-MAPK activity): rat renal mesangial cells, stimulation for 10 min; for effect on ST-968-induced p42/44 activation: pretreatment with pertussis toxin 100 ng/ml 16 h, or VPC23019 10 μM or W146 10 μM 30 min, then ST-968 1 μM 10 min
Description: (A+B): Confluent mesangial cells were pretreated for 16 h with pertussis toxin (100 ng/ml), or for 30 min with vehicle (−), VPC23019 (10 μM) and W146 (10 μM) prior to stimulation for 10 min with either vehicle (Co) or ST-968 (1 μM). (C): Cells were stimulated for 10 min with either vehicle (Co) or the indicated concentrations (in μM) of S1P and ST-1071. Thereafter, cell lysates containing 30 μg of protein were separated by SDS-PAGE, transferred to nitrocellulose and subjected to Western blot analysis using antibodies against phospho-p42/44 (dilution of 1:1000; A, upper panel) and total p42/ERK2 and p44/ERK1 (dilution 1:6000 each; B, lower panel). Blots were stained by the ECL method according to the manufacturer's recommendation. Bands corresponding to the phospho-p42/44 and total ERKs were densitometrically scanned and evaluated (B). Results in B are depicted as % of ST-968 stimulation and are means ±S.D. (n=3).
as §1
Confluent mesangial cells were stimulated as indicated in the figure legends in Dulbecco's modified Eagle medium (DMEM) supplemented with 0.1 mg/ml of fatty acid-free bovine serum albumin and 10 mM HEPES. After stimulation, the supernatant was taken for PGE2 or NO quantification and for detection of secreted IIA-sPLA2. The cell monolayers were homogenized in lysis buffer and processed exactly as previously described (Huwiler et al., 2006). Cell lysates were taken for protein determination. Lysates containing equal amounts of protein, were separated by sodium dodecylsulfate-polyacrylamide gel electrophoresis (SDS-PAGE), transferred to nitrocellulose membranes and subjected for Western blot analysis using antibodies as indicated in the figure legends. Bands were detected by enhanced chemiluminescence method as recommended by the manufacturer.

CCCCCCCCc1ccc(CCC(N)(CO)CO)cc1.Cl [FTY720, 2-Amino-2[2-(4-octylphenyl)ethyl]propane-1,3-diol, reference compound]
colony formation [1]: completely abolished colony formation
growth inhibition [2]: significant growth inhibition

CCCCCCCCc1ccc(CC[C@](N)(CO)COP(=O)(O)O)cc1 [FTY720-P, FTY720-1-phosphate]
growth of MCF-7 cells (MCF-7 cells): slightly induced the growth
growth inhibition [2]: did not inhibit the growth

CCCCCCCCCCCCC/C=C/[C@@H](O)[C@@H](N)COP(=O)(O)O [S1P, sphingosine-1-phosphate]
p42/44 phosphorylation, S1P compared with ST-968 ([3]; 10 min of stimulation): more potent to increase p42/44 phosphorylation than ST-968
growth of MCF-7 cells (MCF-7 cells): slightly induced the growth
growth inhibition [2]: did not inhibit the growth

CCCCCCCCc1ccc(CCC23COCN2COC3)cc1 [ST-968, 7a-(4-Octylphenethyl)Tetrahydro-1H-Oxazolo[3,4-c]Oxazole]
serum-stimulated migration (EA.hy 926 cells): able to reduce serum-stimulated migration
sPLA2 expression [4]: reduced
activation of the p42/44-MAPK cascade [3]: could activate the p42/44-MAPK cascade
p42/44 phosphorylation, ST-968 compared with S1P ([3]; 4 h of stimulation): more potently increasing p42/44 phosphorylation than S1P
IL-1β/forskolin induced NO formation [5]: dose-dependently reduced
colony formation [1]: strongly reduced colony formation
colony formation ([1]; listed as ST 968): inhibited and/or reduced the colony formation
agonistic potential on S1P receptors [6]: have agonistic potential on one or several of the S1P receptors
agonistic potential on S1P receptors ([6]; listed as ST 968): exhibited agonistic potential for one or several of the S1P receptor subtypes
p42/44 phosphorylation (p42/44-MAPK activity) [6]: increased p42/44 phosphorylation

CCCCCCCOc1ccc(CCC23COCN2COC3)cc1 [ST-1071, 7a-(4-(Heptyloxy)Phenethyl)Tetrahydro-1H-Oxazolo[3,4-c]Oxazole]
serum-stimulated migration (EA.hy 926 cells): able to reduce serum-stimulated migration
colony formation [1]: strongly reduced colony formation
colony formation ([1]; listed as ST 1071): inhibited and/or reduced the colony formation
agonistic potential on S1P receptors [6]: have agonistic potential on one or several of the S1P receptors
agonistic potential on S1P receptors ([6]; listed as ST1071): exhibited agonistic potential for one or several of the S1P receptor subtypes
p42/44 phosphorylation (p42/44-MAPK activity) [6]: stimulated p42/44 phosphorylation after 10 min in a concentration-dependent manner
potency on p42/44 phosphorylation compared with S1P ([6]; renal mesangial cells, 10 min): less potent than S1P

CCCCCCCCc1cccc(NC(=O)[C@H](N)COP(=O)(O)O)c1 [VPC23019, reference compound]
effect on ST-968-induced p42/44 activation [6]: completely abolished

CCCCCCc1cccc(NC(=O)[C@H](N)CCP(=O)(O)O)c1 [W146, (R)-3-amino-(3-hexylphenylamino)-4-oxobutylphosphonic acid, reference compound]
effect on ST-968-induced p42/44 activation [6]: had no effect

CCCCCCCCCCCCC/C=C/[C@@H](O)[C@H](CO)N(C)C [dimethylsphingosine]
effect of the combination on the inhibitory effect of FTY720 ([2]; combined with FTY720, Nagaoka et al. 2008): augmented the inhibitory effect of FTY720

CCCCCCC(=O)CCCCCC/C=C/C[C@@H](O)[C@H](O)[C@@](N)(CO)C(=O)O [myriocin, reference compound]
colony formation [1]: had no effect

CCCCCCCCCCCCC/C=C/[C@@H](O)[C@@H](N)CO [sphingosine]
growth inhibition [2]: significant growth inhibition

pertussis toxin [reference compound]
effect on ST-968-induced p42/44 activation [6]: only partially blocked
